These results are taken from publication PMC6412051 (Scientific Reports, 2019).

The conditions of data set [1]: oral administration; cited from earlier work.
Data set [2] in a line: Formation/stability constant by continuous variation (Job's) method. It is filed as physicochemical. The conditions noted are these: equimolar solutions in methanol, room temperature. From the text:
In Fig. 1, the extrapolated value at the point of cross section on the Job’s curve corresponds to the total absorbance of the complex, if the complex formation had been completed. Since the complex is dissociative in nature, the actual absorbance is somewhat lower than the absorbance […].
The colour of the solution changed from brown to orange. Wavelength of maximum absorbance was noted against a blank, which appeared at 296 nm. All the measurements were made at 296 nm.

As to `CCN1CCCC1CNC(=O)c1cc(S(N)(=O)=O)ccc1OC` (centres unmarked) [SPR, Sulpiride], the bioavailability entry in data set [1] is “approximately 30%”.

As for [Ru(p-cymene)Cl(SPR)], the “formation constant of the complex (log K)” value in data set [2] was determined as 5.45.
